According to patent publication US12018001B2, “Pyrimidine cyclohexenyl glucocorticoid receptor modulators” (priority 2018, dated 2024):
Read-outs that look alike come from different tables or passages of the source.

Tests used:
[1] = Rat pharmacokinetics (PK) studies, oral gavage cassette; assay type: in vivo, male Sprague Dawley rats; details: male, Sprague Dawley (or equivalent), rat plasma; for AUC(0-t): read-out: AUC0-24
Description: Rat PK studies were conducted in male Sprague Dawley rats (or equivalent) with 3 rats per group. Compounds were evaluated in cassettes of 4 compounds per cassette, with each cassette containing 3 test compounds and one comparator compound with known PK parameters. Rats were cannulated in the jugular vein. The compounds were administered by oral gavage using a suitable vehicle, such as 10% DMSO and 90% methyl cellulose. Compounds of Example 1, Example 10, Example 14, and Example 20 were evaluated with a nominal dose of 1.25 mg/kg and the compound of Example 32 was evaluated with a nominal dose of 3 mg/kg. Blood samples were collected at various timepoints out to 24 hours post-dose and processed to provide plasma. Compound concentrations in the plasma samples were determined by LC/MS analysis. Cmax and AUC were calculated using WinNonlin.

[2] = target: T1, glucocorticoid receptor (Homo sapiens, UniProt P04150); assay: Hep G2 TAT assay: induction of TAT by dexamethasone in HepG2 cells; assay type: cell-based
T1 construct: host or cells: HepG2
T1 sequence (P04150 1-777): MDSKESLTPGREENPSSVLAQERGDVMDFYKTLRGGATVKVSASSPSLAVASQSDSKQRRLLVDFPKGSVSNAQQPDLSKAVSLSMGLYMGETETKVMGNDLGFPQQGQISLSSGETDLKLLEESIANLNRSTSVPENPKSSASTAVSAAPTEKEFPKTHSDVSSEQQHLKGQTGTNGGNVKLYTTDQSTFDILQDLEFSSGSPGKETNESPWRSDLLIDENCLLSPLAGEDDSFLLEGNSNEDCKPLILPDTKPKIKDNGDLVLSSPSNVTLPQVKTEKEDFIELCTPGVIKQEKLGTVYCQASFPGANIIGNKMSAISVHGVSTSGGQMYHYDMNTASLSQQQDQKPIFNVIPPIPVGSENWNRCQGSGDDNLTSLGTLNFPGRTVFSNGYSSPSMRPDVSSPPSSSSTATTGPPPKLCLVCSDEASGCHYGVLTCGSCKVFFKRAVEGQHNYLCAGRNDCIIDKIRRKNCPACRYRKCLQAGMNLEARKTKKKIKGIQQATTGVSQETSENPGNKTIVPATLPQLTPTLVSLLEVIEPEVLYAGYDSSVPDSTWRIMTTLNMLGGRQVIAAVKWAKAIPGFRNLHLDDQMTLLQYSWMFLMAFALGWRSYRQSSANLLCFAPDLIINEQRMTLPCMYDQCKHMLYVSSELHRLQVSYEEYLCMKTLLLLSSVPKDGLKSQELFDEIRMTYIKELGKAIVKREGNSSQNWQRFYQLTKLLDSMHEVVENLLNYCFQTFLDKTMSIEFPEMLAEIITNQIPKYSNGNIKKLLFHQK
Description: Glucocorticoid mediated activation of TAT occurs by transactivation of glucocorticoid response elements in the TAT promoter by glucocorticoid receptor-agonist complex.
TAT activity was measured as outlined in the literature by A. Ali et al., J. Med. Chem., 2004, 47, 2441-2452.
HepG2 cells were cultured using MEME media supplemented with 10% (v/v) foetal bovine serum; 2 mM L-glutamine and 1% (v/v) NEAA at 37° C., 5%/95% (v/v) CO2/air. The HepG2 cells were counted and adjusted to yield a density of 0.125×10^6 cells/ml in RPMI 1640 without phenol red, 10% (v/v) charcoal stripped FBS, 2 mM L-glutamine and seeded at 25,000 cells/well in 200 μl into 96 well, sterile, tissue culture micro titre plates, and incubated at 37° C., 5% CO2 for 24 hours
Growth media was removed and replaced with assay media {RPMI 1640 without phenol red, 2 mM L-glutamine+10 μM forskolin}. […] Compounds were serially half log diluted in 100% (v/v) dimethylsulphoxide from a 10 mM stock.
HepG2 cells were then lysed with 30 μl of cell lysis buffer containing a protease inhibitor cocktail for 15 minutes at 4° C. 155 μl of substrate mixture was then added containing 5.4 mM Tyrosine sodium salt, 10.8 mM alpha ketoglutarate and 0.06 mM pyridoxal 5′ phosphate in 0.1 M potassium phosphate buffer (pH 7.4). After 2 hours incubation at 37° C. the reaction was terminated by the addition of 15 μl of 10 M aqueous potassium hydroxide solution, and the plates incubated for a further 30 minutes at 37° C. The TAT activity product was measured by absorbance at λ 340 nm.
[compound] and fitting the data to a 4 parameter logistic equation.

[3] = target: T2, GR (Homo sapiens, UniProt P04150); assay: GR binding
T2 sequence (P04150 1-777): T1 sequence (P04150 1-777)

COc1cc(C#N)ccc1C1=CCC(c2[nH]c(=O)[nH]c(=O)c2Cc2ccccc2)CC1 (stereo not drawn) [Example 20]
Cmax ([1]; nominal dose 1.25 mg/kg): 83.6 ng/mL | AUC(0-t) ([1]; nominal dose 1.25 mg/kg): 375 ng·h/mL | Ki [2]: 33 nM

N#Cc1ccc(C2=CCC(c3[nH]c(=O)[nH]c(=O)c3Cc3ccccc3)CC2)c(C(F)(F)F)c1 (stereo not drawn) [Example 32]
Cmax ([1]; nominal dose 3 mg/kg): 453 ng/mL | AUC(0-t) ([1]; nominal dose 3 mg/kg): 988 ng·h/mL | Ki [2]: 66 nM

O=c1[nH]c(C2CC=C(c3ccc(Cl)cc3C(F)(F)F)CC2)c(Cc2ccccc2)c(=O)[nH]1 (stereo not drawn) [Example 10]
Cmax ([1]; nominal dose 1.25 mg/kg): 196 ng/mL | AUC(0-t) ([1]; nominal dose 1.25 mg/kg): 3040 ng·h/mL | Ki [2]: 38 nM

N#Cc1ccc(C2=CCC(c3[nH]c(=O)[nH]c(=O)c3Cc3ccccc3)CC2)c(Cl)c1 (stereo not drawn) [Example 1, 4′-(5-benzyl-2,6-dioxo-1,2,3,6-tetrahydropyrimidin-4-yl)-2-chloro-2′,3′,4′,5′-tetrahydro-[1,1′-biphenyl]-4-carbonitrile]
Cmax ([1]; nominal dose 1.25 mg/kg): 114 ng/mL | AUC(0-t) ([1]; nominal dose 1.25 mg/kg): 991 ng·h/mL | Ki [2]: 28 nM

CCS(=O)(=O)c1ccc(C2=CCC(c3[nH]c(=O)[nH]c(=O)c3Cc3ccccc3)CC2)c(Cl)c1 (stereo not drawn) [Example 107]
IC50 [3]: 2.8 nM

Cn1cnc2ccc(C3=CCC(c4[nH]c(=O)[nH]c(=O)c4Cc4ccccc4)CC3)cc21 (stereo not drawn) [Example 66]
IC50 [3]: 3520 nM

O=c1[nH]c(C2CC=C(c3ccc(Cl)c(F)c3F)CC2)c(Cc2ccccc2)c(=O)[nH]1 (stereo not drawn) [Example 83]
IC50 [3]: 38.3 nM

O=c1[nH]c(C2CC=C(c3cnc(C(F)(F)F)nc3)CC2)c(Cc2ccccc2)c(=O)[nH]1 (stereo not drawn) [Example 72]
IC50 [3]: 1920 nM

O=c1[nH]c(C2CC=C(c3cccc4nncn34)CC2)c(Cc2ccccc2)c(=O)[nH]1 (stereo not drawn) [Example 88]
IC50 [3]: 483 nM

CN(C)S(=O)(=O)c1cc(C(F)(F)F)ccc1C1=CCC(c2[nH]c(=O)[nH]c(=O)c2Cc2ccccc2)CC1 (stereo not drawn) [Example 97]
IC50 [3]: 2560 nM

CCOc1ccc(C2=CCC(c3[nH]c(=O)[nH]c(=O)c3Cc3ccccc3)CC2)c(Cl)c1 (stereo not drawn) [Example 82]
IC50 [3]: 4.4 nM

O=c1[nH]c(C2CC=C(c3cccnc3C(F)(F)F)CC2)c(Cc2ccccc2)c(=O)[nH]1 (stereo not drawn) [Example 14]
Cmax ([1]; nominal dose 1.25 mg/kg): 63 ng/mL | AUC(0-t) ([1]; nominal dose 1.25 mg/kg): 188 ng·h/mL | Ki [2]: 41 nM

O=c1[nH]c(C2CC=C(c3ccc4c(c3)OCCO4)CC2)c(Cc2ccccc2)c(=O)[nH]1 (stereo not drawn) [Example 65]
IC50 [3]: 103 nM

CN(C)c1ncccc1C1=CCC(c2[nH]c(=O)[nH]c(=O)c2Cc2ccccc2)CC1 (stereo not drawn) [Example 118]
IC50 [3]: 0.76 nM
